Data published in US20240383852A1, “ANTI-VIRAL COMPOUNDS” (INFEX Therapeutics Limited, priority 2021, published 2024).
pIC50: −log10 of the molar value. Counter-ions that a name gives are not always drawn. Like-named read-outs stand apart in the source and are kept apart here.

Experiments:
[1] = biological target: T1, SARS-CoV-2 PLpro (Severe acute respiratory syndrome coronavirus 2, UniProt P0DTD1); test: biochemical
T1 construct: containing 60 nM papain-like protease

[2] = test system: human Hep G2 cells (ATCC HB-8065); test: Cytotoxicity in Hep G2 cells (CellTiter-Glo); format: cell-based
[3] = 60 nM papain-like protease, 50 μM Z-RLRGG-AMC, pH 7.5, 37° C., read-out: SARS-CoV-2 PLpro IC50
[4] = Hep G2 cells, 100 μM test article, 24-hour exposure

Compound | pIC50 [1, 3] | % Cell Viability [2, 4] | pIC50 [1] | % Cell Viability ([2]; human, 24 h, 100 μM)
Cc1ccc(N2CCN(C)CC2)cc1C(=O)N[C@H](C)c1cccc(-c2cccc(C(=O)NCCN)c2)c1 [Example 98, N-[(1R)-1-[3-[3-(2-Aminoethylcarbamoyl)phenyl]phenyl]eth-yl]-2-methyl-5-(4-methylpiperazin-1-yl)benzamide] | > 5.70 | 98.5% | – | –
CNCCN(C)C(=O)c1cccc(-c2cccc([C@@H](C)NC(=O)c3cc(N4CCN(C)CC4)ccc3C)c2)c1 [Example 99, 2-Methyl-N-[(1R)-1-[3-[3-[methyl-[2-(methylamino)ethyl]carbamoyl]phenyl]phenyl]ethyl]-5-(4-methylpiperazin-1-yl)benzamide Hydrochloride Salt] | > 5.70 | 104.6% | – | –
COCCNC(=O)c1cc(-c2cccc([C@@H](C)NC(=O)c3cc(N4CCN(C)CC4)ccc3C)c2)cs1 [Example 100, N-(2-Methoxyethyl)-4-[3-[(1R)-1-[[2-methyl-5-(4-methylpiperazin-1-yl)benzoyl]amino]ethyl]phenyl]thiophene-2-carboxamide] | > 5.70 | 65.9% | – | –
Cc1ccc(N2CCN(C)CC2)cc1C(=O)N[C@H](C)c1cccc(-c2csc(C(=O)N(C)C)c2)c1 [Example 101, N,N-Dimethyl-4-[3-[(1R)-1-[[2-methyl-5-(4-methylpiperazin-1-yl)benzoyl]amino]ethyl]phenyl]thiophene-2-carboxamide] | > 5.70 | 88.1% | – | –
Cc1ccc(N2CCN(C)CC2)cc1C(=O)N[C@H](C)c1cccc(N2CCN(C)CC2)c1 [Example 103, 2-Methyl-5-(4-methylpiperazin-1-yl)-N-[(1R)-1-[3-(4-methylpiperazin-1-yl)phenyl]ethyl]benzamide] | > 5.30 | 91.4% | – | –
Cc1ccc(N2CCN(C)CC2)cc1C(=O)N[C@H](C)c1cccc(N2CCNCC2)c1 [Example 105, 2-Methyl-5-(4-methylpiperazin-1-yl)-N-[(1R)-1-(3-piperazin-1-ylphenyl)ethyl]benzamide] | > 5.30 | 113.3% | – | –
Cc1ccc(N2CCN(C)CC2)cc1C(=O)N[C@H](C)c1ccc(N2CCNCC2)cc1 [Example 106, 2-Methyl-5-(4-methylpiperazin-1-yl)-N-[(1R)-1-(4-piperazin-1-ylphenyl)ethyl]benzamide] | > 5.30 | 87.4% | – | –
Cc1ccc(N2CCN(C)CC2)cc1C(=O)N[C@H](C)c1cccc(N2CC(CO)OC2=O)c1 (stereo partly drawn) [Example 107, N-[(1R)-1-[3-[5-(Hydroxymethyl)-2-oxo-oxazolidin-3-yl]phenyl]ethyl]-2-methyl-5-(4-methylpiperazin-1-yl)benzamide] | > 5.30 | 100.7% | – | –
Cc1ccc(N2CCNCC2)cc1C(=O)N[C@H](C)c1cccc2ccccc12 [Example 108, 2-Methyl-N-[(1R)-1-(1-naphthyl)ethyl]-5-piperazin-1-yl-benzamide] | > 5.70 | 2.1% | – | –
CC(=O)N1CCN(c2ccc(C)c(C(=O)N[C@H](C)c3cccc4ccccc34)c2)CC1 [Example 109, 5-(4-Acetylpiperazin-1-yl)-2-methyl-N-[(1R)-1-(1-naphthyl)ethyl]benzamide] | > 5.00 | 72.9% | – | –
Cc1ccc(N2CCN(CCO)CC2)cc1C(=O)N[C@H](C)c1cccc2ccccc12 [Example 111, 5-[4-(2-Hydroxyethyl)piperazin-1-yl]-2-methyl-N-[(1R)-1-(1-naphthyl)ethyl]benzamide] | > 5.70 | 74.8% | – | –
Cc1ccc(N2CCN(CCO)CC2)cc1C(=O)N[C@H](C)c1cccc(-c2cnn(C)c2)c1 [Example 112, 5-[4-(2-Hydroxyethyl)piperazin-1-yl]-2-methyl-N-[(1R)-1-[3-(1-methylpyrazol-4-yl)phenyl]ethyl]benzamide] | > 5.70 | 41.0% | – | –
Cc1ccc(N2CCN(CC(=O)N(C)C)CC2)cc1C(=O)N[C@H](C)c1cccc(-c2cnn(C)c2)c1 [Example 113, 5-[4-[2-(Dimethylamino)-2-oxo-ethyl]piperazin-1-yl]-2-methyl-N-[(1R)-1-[3-(1-methylpyrazol-4-yl)phenyl]ethyl]benzamide] | > 4.70 | 72.7% | – | –
COCCN1CCN(c2ccc(C)c(C(=O)N[C@H](C)c3cccc(-c4cnn(C)c4)c3)c2)CC1 [Example 114, 5-[4-(2-Methoxyethyl)piperazin-1-yl]-2-methyl-N-[(1R)-1-[3-(1-methylpyrazol-4-yl)phenyl]ethyl]benzamide] | > 5.30 | 59.0% | – | –
Cc1ccc(N2CCN(C3CC3)CC2)cc1C(=O)N[C@H](C)c1cccc2ccccc12 [Example 115, 5-(4-Cyclopropylpiperazin-1-yl)-2-methyl-N-[(1R)-1-(1-naphthyl)ethyl]benzamide] | > 5.70 | 26.7% | – | –
Cc1ccc(N2CCOCC2)cc1C(=O)N[C@H](C)c1cccc2ccccc12 [Example 116, 2-Methyl-5-morpholino-N-[(1R)-1-(1-naphthyl)ethyl]benzamide] | > 5.00 | 66.6% | – | –

Compound | pIC50 [1, 3] | % Cell Viability [2, 4] | pIC50 [1] | % Cell Viability ([2]; human, 24 h, 100 μM)
Cc1ccc(N2CCN(C3COC3)CC2)cc1C(=O)N[C@H](C)c1cccc2ccccc12 [Example 117, 2-Methyl-N-[(1R)-1-(1-naphthyl)ethyl]-5-[4-(oxetan-3-yl)piperazin-1-yl]benzamide] | > 5.30 | 61.1% | – | –
Cc1ccc(N2CCN(CC3CC3)CC2)cc1C(=O)N[C@H](C)c1cccc2ccccc12 [Example 118, 5-[4-(Cyclopropylmethyl)piperazin-1-yl]-2-methyl-N-[(1R)-1-(1-naphthyl)ethyl]benzamide] | > 5.70 | 6.6% | – | –
Cc1ccc(N2C[C@H]3C[C@@H]2CN3C)cc1C(=O)N[C@H](C)c1cccc2ccccc12 [Example 121, 2-Methyl-5-[(1R,4R)-5-methyl-2,5-diazabicyclo[2.2.1]heptan-2-yl]-N-[(1R)-1-(naphthalen-1-yl)ethyl]benzamide] | > 5.70 | 75.1% | – | –
Cc1ccc(N2C[C@H]3C[C@@H]2CN3C)cc1C(=O)N[C@H](C)c1cccc2c1OCO2 [Example 122, N-[(1R)-1-(1,3-benzodioxol-4-yl)ethyl]-2-methyl-5-[(1R,4R)-5-methyl-2,5-diazabicyclo[2.2.1]heptan-2-yl]benzamide] | > 5.30 | 95.4% | – | –
Cc1ccc(N2C[C@H]3C[C@@H]2CN3C)cc1C(=O)N[C@H](C)c1cccc(Br)c1 [Example 123, N-[(1R)-1-(3-bromophenyl)ethyl]-2-methyl-5-[(1R,4R)-5-methyl-2,5-diazabicyclo[2.2.1]heptan-2-yl]benzamide] | > 5.70 | 32.9% | – | –
Cc1ccc(N2CCN(C)CC2)c(C)c1C(=O)N[C@H](C)c1cccc2ccccc12 [Example 124, 2,6-Dimethyl-3-(4-methylpiperazin-1-yl)-N-[(1R)-1-(1-naphthyl)ethyl]benzamide] | > 5.70 | 37.4% | – | –
Cc1ccc(N2CCN3CCCC3C2)cc1C(=O)N[C@H](C)c1cccc2ccccc12 (stereo partly drawn) [Example 125, 5-(3,4,6,7,8,8a-Hexahydro-1H-pyrrolo[1,2-a]pyrazin-2-yl)-2-methyl-N-[(1R)-1-(1-naphthyl)ethyl]benzamide hydrochloride salt] | > 5.70 | 55.8% | – | –
Cc1ccc(N2CCN(C)C(C)C2)cc1C(=O)N[C@H](C)c1cccc2ccccc12 (stereo partly drawn) [Example 126, 5-(3,4-Dimethylpiperazin-1-yl)-2-methyl-N-[(1R)-1-(1-naphthyl)ethyl]benzamide] | > 5.70 | 62.8% | – | –
Cc1ccc(N2CCCNCC2)cc1C(=O)N[C@H](C)c1cccc2ccccc12 [Example 128, 5-(1,4-Diazepan-1-yl)-2-methyl-N-[(1R)-1-(1-naphthyl)ethyl]benzamide] | > 5.70 | 1.1% | – | –
Cc1ccc(N2CC[C@@H](N3CCCCC3)C2)cc1C(=O)N[C@H](C)c1cccc2ccccc12 [Example 129, 2-Methyl-N-[(1R)-1-(1-naphthyl)ethyl]-5-[(3R)-3-(1-piperidyl)pyrrolidin-1-yl]benzamide] | > 5.30 | 95.5% | – | –
C[C@@H](NC(=O)c1cc(N2CCN(C)CC2)ccc1Cl)c1cccc2ccccc12 [Example 130, 2-Chloro-5-(4-methylpiperazin-1-yl)-N-[(1R)-1-(1-naphthyl)ethyl]benzamide] | > 5.00 | 1.0% | – | –
C[C@@H]1CN(c2ccc(Cl)c(C(=O)N[C@H](C)c3cccc4ccccc34)c2)C[C@H](C)N1 [Example 133, 2-Chloro-5-[(3S,5R)-3,5-dimethylpiperazin-1-yl]-N-[(1R)-1-(1-naphthyl)ethyl]benzamide] | > 5.30 | 0.1% | – | –
C[C@@H](NC(=O)c1cc(N2CCNCC2)ccc1Cl)c1cccc2ccccc12 [Example 134, 2-Chloro-N-[(1R)-1-(1-naphthyl)ethyl]-5-piperazin-1-yl-benzamide] | > 5.70 | 0.8% | – | –
Cc1ccc(-c2ccnc(N3CCNCC3)c2)cc1C(=O)N[C@H](C)c1cccc2ccccc12 [Example 140, 2-Methyl-N-[(1R)-1-(1-naphthyl)ethyl]-5-(2-piperazin-1-yl-4-pyridyl)benzamide] | > 5.00 | 0.8% | – | –
C[C@@H](NC(=O)c1cc(C2=CCN(C)CC2)ccc1Cl)c1cccc2ccccc12 [Example 144, 2-Chloro-5-(1-methyl-3,6-dihydro-2H-pyridin-4-yl)-N-[(1R)-1-(1-naphthyl)ethyl]benzamide] | – | – | > 5.00 | 1.6%
C[C@@H](NC(=O)c1cc(C2=CCNC2)ccc1Cl)c1cccc2ccccc12 [Example 146, 2-Chloro-5-(2,5-dihydro-1H-pyrrol-3-yl)-N-[(1R)-1-(1-naphthyl)ethyl]benzamide Hydrochloride Salt] | > 5.70 | 0.2% | – | –
